# Molecular target: PI3K delta (Homo sapiens (Human), UniProt O00329)
# Assay: Luciferase-coupled chemiluminescence kinase assay (KinaseGlo, ATP consumption)
# Type: biochemical
# In short: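 Kinase, compound and ATP (at or below KM) reacted 2 h at ambient temperature; remaining ATP detected by KinaseGlo luciferase chemiluminescence as percent ATP consumed. 10-point dose-response, curves fitted to give IC50.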
# Chain of PI3K delta (O00329 whole entry): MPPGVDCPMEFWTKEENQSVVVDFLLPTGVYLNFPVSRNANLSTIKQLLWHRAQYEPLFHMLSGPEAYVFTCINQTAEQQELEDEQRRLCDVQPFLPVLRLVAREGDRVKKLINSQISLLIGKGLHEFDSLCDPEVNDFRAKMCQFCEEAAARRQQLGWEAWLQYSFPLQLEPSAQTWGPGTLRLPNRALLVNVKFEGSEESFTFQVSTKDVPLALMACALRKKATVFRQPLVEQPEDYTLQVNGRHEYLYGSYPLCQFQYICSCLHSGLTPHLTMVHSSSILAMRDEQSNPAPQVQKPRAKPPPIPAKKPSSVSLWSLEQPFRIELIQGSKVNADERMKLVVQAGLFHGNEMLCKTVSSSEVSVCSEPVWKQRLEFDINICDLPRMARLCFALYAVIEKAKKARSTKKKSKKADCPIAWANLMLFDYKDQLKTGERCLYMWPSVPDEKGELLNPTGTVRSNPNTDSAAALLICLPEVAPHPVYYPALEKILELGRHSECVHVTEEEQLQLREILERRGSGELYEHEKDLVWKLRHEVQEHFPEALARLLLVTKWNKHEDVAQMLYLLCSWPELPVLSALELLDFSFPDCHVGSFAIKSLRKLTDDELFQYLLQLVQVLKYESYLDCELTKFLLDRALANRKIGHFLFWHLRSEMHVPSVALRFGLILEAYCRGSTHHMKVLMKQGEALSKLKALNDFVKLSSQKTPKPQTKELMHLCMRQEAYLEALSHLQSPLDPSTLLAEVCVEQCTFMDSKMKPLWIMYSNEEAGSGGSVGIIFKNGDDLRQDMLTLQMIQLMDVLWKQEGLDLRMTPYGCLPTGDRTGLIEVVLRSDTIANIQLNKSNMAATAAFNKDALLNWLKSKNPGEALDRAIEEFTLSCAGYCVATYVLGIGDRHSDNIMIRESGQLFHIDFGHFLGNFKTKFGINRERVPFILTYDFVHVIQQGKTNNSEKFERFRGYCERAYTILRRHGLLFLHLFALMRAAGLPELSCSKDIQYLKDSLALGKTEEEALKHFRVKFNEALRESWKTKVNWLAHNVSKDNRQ
# Chain of PI3K delta (P27986 whole entry partner): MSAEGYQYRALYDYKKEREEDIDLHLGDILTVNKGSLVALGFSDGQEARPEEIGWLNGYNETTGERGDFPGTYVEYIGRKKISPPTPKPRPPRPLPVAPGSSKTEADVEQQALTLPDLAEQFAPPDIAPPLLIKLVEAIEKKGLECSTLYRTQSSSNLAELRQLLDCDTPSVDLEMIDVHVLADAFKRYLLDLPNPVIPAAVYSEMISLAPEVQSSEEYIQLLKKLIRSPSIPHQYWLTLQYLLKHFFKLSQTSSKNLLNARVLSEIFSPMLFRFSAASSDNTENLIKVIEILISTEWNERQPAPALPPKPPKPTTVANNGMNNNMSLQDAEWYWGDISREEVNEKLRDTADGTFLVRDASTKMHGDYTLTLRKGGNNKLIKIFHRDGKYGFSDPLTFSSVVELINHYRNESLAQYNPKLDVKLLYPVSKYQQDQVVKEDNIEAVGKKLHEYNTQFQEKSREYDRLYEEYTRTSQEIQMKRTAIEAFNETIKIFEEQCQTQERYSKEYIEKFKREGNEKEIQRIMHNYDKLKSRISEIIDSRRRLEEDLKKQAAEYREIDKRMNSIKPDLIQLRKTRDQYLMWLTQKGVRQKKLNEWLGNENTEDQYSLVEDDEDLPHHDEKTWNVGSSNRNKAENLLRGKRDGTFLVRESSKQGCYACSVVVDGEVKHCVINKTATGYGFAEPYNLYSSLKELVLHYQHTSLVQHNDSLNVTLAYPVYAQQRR
row,SMILES,IC50 [nM]
1,"Cc1ccccc1-n1c(CNC(=O)c2nccnc2Cl)nc2cccc(C)c2c1=O [Compound 159, 3-chloro-N-{[5-methyl-3-(2-methylphenyl)-4-oxo-3,4-dihydroquinazolin-2-yl]methyl}pyrazine-2-carboxamide]",500 to 1500
2,"Cc1ccccc1-n1c(CNC(=O)c2nc(Br)cnc2N)nc2cccc(C)c2c1=O [Compound 160, 3-amino-6-bromo-N-{[5-methyl-3-(2-methylphenyl)-4-oxo-3,4-dihydroquinazolin-2-yl]methyl}pyrazine-2-carboxamide]",500 to 1500
3,"Cc1ccccc1-n1c(CNC(=O)c2ncccc2N)nc2cccc(C)c2c1=O [Compound 161, 3-amino-N-{[5-methyl-3-(2-methylphenyl)-4-oxo-3,4-dihydroquinazolin-2-yl]methyl}pyridine-2-carboxamide]",500 to 1500
4,"Cc1ccccc1-n1c(Cn2cnc3c(N)ncnc32)nc2ccsc2c1=O [Compound 162, 2-[(6-amino-9H-purin-9-yl)methyl]-3-(2-methylphenyl)thieno[3,2-d]pyrimidin-4(3H)-one]",500 to 1500
5,"Cc1ccccc1-n1c(CSc2ncnc3nc[nH]c23)nc2ccsc2c1=O [Compound 163, 3-(2-methylphenyl)-2-[(7H-purin-6-ylthio)methyl]thieno[3,2-d]pyrimidin-4(3H)-one]",500 to 1500
6,"Cc1cccc2cc(Cn3cnc4c(N)ncnc43)c(NC3CCN(C)CC3)nc12 [Compound 164, 3-[(6-amino-9H-purin-9-yl)methyl]-8-methyl-N-(1-methylpiperidin-4-yl)quinolin-2-amine]",500 to 1500
7,"Cc1cccc2cc(Cn3cnc4c(N)ncnc43)c(NC3CCOCC3)nc12 [Compound 165, 3-[(6-amino-9H-purin-9-yl)methyl]-8-methyl-N-(tetrahydro-2H-pyran-4-yl)quinolin-2-amine]",500 to 1500
8,"CC(=O)N1CCN(c2nc3c(C)cccc3cc2Cn2cnc3c(N)ncnc32)CC1 [Compound 166, 9-{[2-(4-acetylpiperazin-1-yl)-8-methylquinolin-3-yl]methyl}-9H-purin-6-amine]",50 to 250
9,"COCCNc1nc2c(C)cccc2cc1Cn1cnc2c(N)ncnc21 [Compound 167, 3-[(6-amino-9H-purin-9-yl)methyl]-8-methyl-N-[2-(methyloyx)ethyl]quinolin-2-amine]",500 to 1500
10,"Cc1ccccc1-c1c(Cn2cnc3c(N)ncnc32)nc2ccccc2c1C [Compound 168, 9-{[4-methyl-3-(2-methylphenyl)quinolin-2-yl]methyl}-9H-purin-6-amine]",500 to 1500
11,"Cc1ccccc1-c1c(Cn2cnc3ncnc(N)c32)nc2ccccc2c1C [Compound 169, 7-{[4-methyl-3-(2-methylphenyl)quinolin-2-yl]methyl}-7H-purin-6-amine]",500 to 1500
12,"Cc1cccc2cc(Cn3cnc4c(N)ncnc43)c(N3CCCC3C)nc12 (stereo not shown) [Compound 170, 9-{[8-methyl-2-(2-methylpyrrolidin-1-yl)quinolin-3-yl]methyl}-9H-purin-6-amine]",50 to 250
13,"Cc1cccc2cc(Cn3cnc4c(N)ncnc43)c(N3CCCC3)nc12 [Compound 171, 9-[(8-methyl-2-pyrrolidin-1-ylquinolin-3-yl)methyl]-9H-purin-6-amine]",50 to 250
14,"Cc1cccc2cc(Cn3cnc4c(N)ncnc43)c(N3CCNCC3)nc12 [Compound 172, 9-[(8-methyl-2-piperazin-1-ylquinolin-3-yl)methyl]-9H-purin-6-amine]",50 to 250
15,"Cc1cccc2cc(Cn3cnc4c(N)ncnc43)c(N3CCN(C)CC3)nc12 [Compound 173, 9-{[8-methyl-2-(4-methylpiperazin-1-yl)quinolin-3-yl]methyl}-9H-purin-6-amine]",50 to 250
16,"Cc1ccccc1-n1c(CNC(=O)c2ccnc(N)c2)nc2cccc(C)c2c1=O [Compound 174, 2-amino-N-{[5-methyl-3-(2-methylphenyl)-4-oxo-3,4-dihydroquinazolin-2-yl]methyl}pyridine-4-carboxamide]",500 to 1500

row,SMILES,IC50 [nM]
1,"Cc1ccccc1-n1c(CNC(=O)c2nccnc2N)nc2cccc(C)c2c1=O [Compound 175, 3-amino-N-{[5-methyl-3-(2-methylphenyl)-4-oxo-3,4-dihydroquinazolin-2-yl]methyl}pyrazine-2-carboxamide]",< 50
2,"Cc1ccccc1-n1c(CNC(=O)c2cccnc2N)nc2cccc(C)c2c1=O [Compound 176, 2-amino-N-{[5-methyl-3-(2-methylphenyl)-4-oxo-3,4-dihydroquinazolin-2-yl]methyl}pyridine-3-carboxamide]",500 to 1500
3,"Cc1cccc2cc(Cn3cnc4c(N)ncnc43)c(N3CCOCC3)nc12 [Compound 177, 9-[(8-methyl-2-morpholin-4-ylquinolin-3-yl)methyl]-9H-purin-6-amine]",50 to 250
4,"Cc1ccccc1-c1cc2ccccc2nc1Cn1cnc2ncnc(N)c21 [Compound 178, 7-{[3-(2-methylphenyl)quinolin-2-yl]methyl}-7H-purin-6-amine]",50 to 250
5,"Cc1ccccc1-c1cc2ccccc2nc1Cn1cnc2c(N)ncnc21 [Compound 179, 9-{[3-(2-methylphenyl)quinolin-2-yl]methyl}-9H-purin-6-amine]",500 to 1500
6,"Cc1cccc(-c2nc3c(C)cccc3cc2Cn2cnc3c(N)ncnc32)c1C [Compound 180, 9-{[2-(2,3-dimethylphenyl)-8-methylquinolin-3-yl]methyl}-9H-purin-6-amine]",500 to 1500
7,"Cc1cccc2cc(Cn3cnc4c(N)ncnc43)c(-c3ccccc3C(F)(F)F)nc12 [Compound 182, 9-({8-methyl-2-[2-(trifluoromethyl)phenyl]quinolin-3-yl}methyl)-9H-purin-6-amine]",50 to 250
8,"Cc1cccc(-c2nc3c(C)cccc3cc2Cn2cnc3c(N)ncnc32)c1 [Compound 183, 9-{[8-methyl-2-(3-methylphenyl)quinolin-3-yl]methyl}-9H-purin-6-amine]",250 to 500
9,"COCCOc1cccc(-c2nc3c(C)cccc3cc2Cn2cnc3c(N)ncnc32)c1 [Compound 184, 9-{[8-methyl-2-(3-{[2-(methyloxy)ethyl]oxy}phenyl)quinolin-3-yl]methyl}-9H-purin-6-amine]",250 to 500
10,"COc1cccc(-c2nc3c(C)cccc3cc2Cn2cnc3c(N)ncnc32)c1 [Compound 185, 9-({8-methyl-2-[3-(methyloxy)phenyl]quinolin-3-yl}methyl)-9H-purin-6-amine]",250 to 500
11,"Cc1cccc2cc(Cn3cnc4c(N)ncnc43)c(-c3ccccc3Cl)nc12 [Compound 187, 9-{[2-(2-chlorophenyl)-8-methylquinolin-3-yl]methyl}-9H-purin-6-amine]",50 to 250
12,"Cc1ccccc1-c1nc2c(C)cccc2cc1CSc1ncnc2[nH]cnc12 [Compound 188, 8-methyl-2-(2-methylphenyl)-3-[(9H-purin-6-ylthio)methyl]quinoline]",50 to 250
13,"Cc1ccccc1-c1nc2c(C)cccc2cc1Cn1cnc2c(N)ncnc21 [Compound 189, 9-{[8-methyl-2-(2-methylphenyl)quinolin-3-yl]methyl}-9H-purin-6-amine]",50 to 250
14,"Cc1ccccc1-c1nc2ccccc2nc1Cn1cnc2c(N)ncnc21 [Compound 190, 9-{[3-(2-methylphenyl)quinoxalin-2-yl]methyl}-9H-purin-6-amine]",500 to 1500
15,"Cc1ccccc1-c1nc2ccccc2cc1Cn1cnc2c(N)ncnc21 [Compound 191, 9-{[2-(2-methylphenyl)quinolin-3-yl]methyl}-9H-purin-6-amine]",500 to 1500

# — US9670212B2, “Inhibitors of PI3K-delta and methods of their use and manufacture” (Exelixis, Inc., priority 2010, dated 2017)
